According to ChEMBL document CHEMBL4118122, “Identification and biological evaluation of thiazole-based inverse agonists of RORγt” (Bioorg Med Chem Lett, 2018):

Tests used:
[1] = molecular target: B2 bradykinin receptor (Homo sapiens) (UniProt P30411); assay: Displacement of [3H]bradykinin from human recombinant B2 receptor at 10 uM after 60 mins by scintillation counting analysis relative to control
D(2) dopamine receptor [2] = molecular target: T1, D(2) dopamine receptor (Homo sapiens, UniProt P14416); assay: Displacement of [3H]7-OH-DPAT from human recombinant dopamine D2S receptor at 10 uM after 60 mins by scintillation counting analysis relative to control
Melanocortin receptor 4 = Melanocortin receptor 4 (Homo sapiens, UniProt P32245); assay: Displacement of [125I]NDP-alpha -MSH from human recombinant MC4 receptor at 10 uM after 120 mins by scintillation counting analysis relative to control
[3] = molecular target: Kappa-type opioid receptor (Homo sapiens, UniProt P41145); assay: Displacement of [3H]U69593 from human kappa receptor at 10 uM after 60 mins by scintillation counting analysis relative to control
[4] = molecular target: 5-hydroxytryptamine receptor 1A (Homo sapiens) (UniProt P08908); assay: Displacement of [3H]8-OH-DPAT from recombinant human 5-HT1A receptor at 10 uM after 60 mins by scintillation counting analysis relative to control
[5] = molecular target: 5-hydroxytryptamine receptor 1B (Rattus norvegicus) (UniProt P28564); assay: Displacement of [125I]-CYP from rat brain 5-HT1B receptor at 10 uM after 120 mins by scintillation counting analysis relative to control
[6] = molecular target: 5-hydroxytryptamine receptor 7 (Homo sapiens, UniProt P34969); assay: Displacement of [3H]LSD from human recombinant 5-HT7 receptor at 10 uM after 120 mins by scintillation counting analysis relative to control
[7] = molecular target: Vasoactive intestinal polypeptide receptor 1 (Homo sapiens) (UniProt P32241); assay: Displacement of [125I]VIP from human recombinant VPAC1 receptor at 10 uM after 60 mins by scintillation counting analysis relative to control
Adenosine receptor A2a = Adenosine receptor A2a (Homo sapiens, UniProt P29274); assay: Displacement of [3H]-CGS 21680 from human recombinant adenosine A2A receptor at 1 uM after 120 mins by scintillation counting analysis relative to control
[8] = molecular target: Beta-1 adrenergic receptor (Homo sapiens, UniProt P08588); assay: Displacement of [3H](-)CGP 12177 from human beta1 adrenoceptor at 1 uM after 60 mins by scintillation counting analysis relative to control
Rattus norvegicus [9] = organism: Rattus norvegicus; assay: Displacement of [3H]flunitrazepam from rat brain central BZD at 1 uM after 60 mins relative to control
D(2) dopamine receptor [10] = molecular target: T1, D(2) dopamine receptor; assay: Displacement of [3H]7-OH-DPAT from human recombinant dopamine D2S receptor at 1 uM after 60 mins by scintillation counting analysis relative to control
[11] = molecular target: Endothelin-1 receptor (Homo sapiens) (UniProt P25101); assay: Displacement of [125I]-endothelin-1 from human recombinant ETA receptor at 1 uM after 120 mins by scintillation counting analysis relative to control
[12] = molecular target: Neuropeptide Y receptor type 1 (Homo sapiens) (UniProt P25929); assay: Displacement of [125I]peptide YY from human Y1 receptor at 1 uM after 120 mins by scintillation counting analysis relative to control
[13] = molecular target: 5-hydroxytryptamine receptor 5A (Homo sapiens, UniProt P47898); assay: Displacement of [3H]LSD from human recombinant 5-HT5a receptor at 1 uM after 120 mins by scintillation counting analysis relative to control
[14] = molecular target: 5-hydroxytryptamine receptor 6 (Homo sapiens, UniProt P50406); assay: Displacement of [3H]LSD from human recombinant 5-HT6 receptor at 1 uM after 120 mins by scintillation counting analysis relative to control
Rattus norvegicus [15] = organism: Rattus norvegicus; assay: Displacement of [125I]alpha-dendrotoxin from rat brain voltage-gated K channel at 1 uM after 60 mins by scintillation counting analysis relative to control
Adenosine receptor A3 = Adenosine receptor A3 (Homo sapiens, UniProt P0DMS8); assay: Displacement of [125I]AB-MECA from human recombinant adenosine A3 receptor after 120 mins by scintillation counting analysis
[16] = molecular target: Delta-type opioid receptor (Homo sapiens, UniProt P41143); assay: Displacement of [3H]DADLE from human recombinant delta opioid receptor after 60 mins by scintillation counting analysis
[17] = molecular target: Serine/threonine-protein kinase Chk2 (Homo sapiens) (UniProt O96017); assay: Inhibition of recombinant full length His-tagged human CHK2 expressed in baculovirus expression system at 10 uM in presence of ATP relative to control
PXR (NR1I2) = molecular target: T2, PXR (NR1I2) (Homo sapiens, UniProt O75469); assay: […] at PXR LBD (unknown origin) expressed in HEK293 cells […] at 10 uM after 16 hrs by luciferase reporter gene assay relative to rifampicin; assay type: ADME, cell-based; conditions: HEK293 cells expressing PXR LBD, read-out: Efficacy
T2 sequence (O75469 whole entry): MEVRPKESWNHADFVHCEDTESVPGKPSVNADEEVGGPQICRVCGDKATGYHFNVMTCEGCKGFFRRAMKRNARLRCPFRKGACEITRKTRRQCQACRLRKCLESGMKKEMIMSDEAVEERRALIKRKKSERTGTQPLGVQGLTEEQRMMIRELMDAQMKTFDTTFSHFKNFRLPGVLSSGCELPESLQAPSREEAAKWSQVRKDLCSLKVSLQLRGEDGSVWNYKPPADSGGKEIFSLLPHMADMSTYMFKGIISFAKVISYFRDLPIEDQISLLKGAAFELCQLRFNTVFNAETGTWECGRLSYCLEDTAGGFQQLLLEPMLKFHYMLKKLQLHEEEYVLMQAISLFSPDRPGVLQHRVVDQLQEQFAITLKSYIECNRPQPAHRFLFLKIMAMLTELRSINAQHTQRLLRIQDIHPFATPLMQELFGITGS

[18] = Volume of distribution at steady state in Sprague-Dawley rat at 1 mg/kg, iv; assay type: ADME, organism-based; conditions: in vivo, read-out: Vdss
[19] = Cmax in Sprague-Dawley rat at 5 mg/kg, po; assay type: ADME, organism-based; design: dose 5 mg/kg, route oral; conditions: in vivo
[20] = AUC (0 to infinity) in Sprague-Dawley rat at 5 mg/kg, po; assay type: ADME, organism-based; design: dose 5 mg/kg, route oral, time infinity; conditions: in vivo
[21] = molecular target: Rho-associated protein kinase 1 (Homo sapiens) (UniProt Q13464); assay: Inhibition of recombinant N-terminal GST-tagged human ROCK1 catalytic domain (1 to 535 residues) expressed in baculovirus expression system at 10 uM in presence of ATP relative to control
[22] = system: Casein kinase II subunit alpha' (CSNK2A2); assay: Inhibition of CK2alpha2 (unknown origin) at 10 uM in presence of ATP relative to control; conditions: Homo sapiens

T1 sequence (P14416 whole entry): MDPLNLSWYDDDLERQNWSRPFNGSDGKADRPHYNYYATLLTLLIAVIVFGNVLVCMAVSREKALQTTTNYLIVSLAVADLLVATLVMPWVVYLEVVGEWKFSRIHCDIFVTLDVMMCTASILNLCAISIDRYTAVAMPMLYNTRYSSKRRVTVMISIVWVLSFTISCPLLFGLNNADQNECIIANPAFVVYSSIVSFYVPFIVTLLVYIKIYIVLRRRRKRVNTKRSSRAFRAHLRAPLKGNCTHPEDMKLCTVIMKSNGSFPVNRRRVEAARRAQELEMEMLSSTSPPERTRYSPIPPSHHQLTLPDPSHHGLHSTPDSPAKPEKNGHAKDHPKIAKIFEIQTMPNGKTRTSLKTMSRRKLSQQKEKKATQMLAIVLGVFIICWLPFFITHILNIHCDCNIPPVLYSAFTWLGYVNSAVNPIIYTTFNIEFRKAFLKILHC
Sequence of Vasoactive intestinal polypeptide receptor 1 (Homo sapiens) (P32241 whole entry): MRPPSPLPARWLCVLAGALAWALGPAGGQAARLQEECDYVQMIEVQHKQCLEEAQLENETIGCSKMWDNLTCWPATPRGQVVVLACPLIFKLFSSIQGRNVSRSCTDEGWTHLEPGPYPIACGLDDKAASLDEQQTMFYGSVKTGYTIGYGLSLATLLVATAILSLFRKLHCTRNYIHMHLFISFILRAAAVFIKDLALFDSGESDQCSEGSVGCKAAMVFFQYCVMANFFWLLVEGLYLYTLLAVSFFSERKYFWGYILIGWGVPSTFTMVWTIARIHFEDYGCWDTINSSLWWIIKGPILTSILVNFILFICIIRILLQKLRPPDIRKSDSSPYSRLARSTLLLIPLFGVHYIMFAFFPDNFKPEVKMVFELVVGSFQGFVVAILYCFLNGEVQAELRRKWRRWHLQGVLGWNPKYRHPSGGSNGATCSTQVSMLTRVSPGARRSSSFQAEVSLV
Sequence of Melanocortin receptor 4 (P32245 whole entry): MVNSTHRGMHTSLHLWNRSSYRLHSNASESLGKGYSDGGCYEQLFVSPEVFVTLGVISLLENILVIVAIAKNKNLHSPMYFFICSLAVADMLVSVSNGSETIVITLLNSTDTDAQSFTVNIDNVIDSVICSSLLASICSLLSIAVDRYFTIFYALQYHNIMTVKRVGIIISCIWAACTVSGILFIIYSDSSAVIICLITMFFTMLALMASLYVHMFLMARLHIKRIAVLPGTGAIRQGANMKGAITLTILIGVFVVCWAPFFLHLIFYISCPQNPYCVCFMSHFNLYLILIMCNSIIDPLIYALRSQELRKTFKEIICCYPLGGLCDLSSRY
Sequence of Adenosine receptor A3 (P0DMS8 whole entry): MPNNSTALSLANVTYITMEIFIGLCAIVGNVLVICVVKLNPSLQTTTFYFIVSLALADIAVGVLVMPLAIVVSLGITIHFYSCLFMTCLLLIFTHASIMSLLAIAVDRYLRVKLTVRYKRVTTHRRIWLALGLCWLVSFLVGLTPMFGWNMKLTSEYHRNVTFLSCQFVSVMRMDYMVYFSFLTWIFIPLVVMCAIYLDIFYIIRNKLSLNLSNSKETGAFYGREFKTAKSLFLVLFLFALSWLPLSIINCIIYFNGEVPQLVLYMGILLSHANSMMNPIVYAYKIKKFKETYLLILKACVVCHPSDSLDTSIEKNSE
Sequence of 5-hydroxytryptamine receptor 6 (P50406 whole entry): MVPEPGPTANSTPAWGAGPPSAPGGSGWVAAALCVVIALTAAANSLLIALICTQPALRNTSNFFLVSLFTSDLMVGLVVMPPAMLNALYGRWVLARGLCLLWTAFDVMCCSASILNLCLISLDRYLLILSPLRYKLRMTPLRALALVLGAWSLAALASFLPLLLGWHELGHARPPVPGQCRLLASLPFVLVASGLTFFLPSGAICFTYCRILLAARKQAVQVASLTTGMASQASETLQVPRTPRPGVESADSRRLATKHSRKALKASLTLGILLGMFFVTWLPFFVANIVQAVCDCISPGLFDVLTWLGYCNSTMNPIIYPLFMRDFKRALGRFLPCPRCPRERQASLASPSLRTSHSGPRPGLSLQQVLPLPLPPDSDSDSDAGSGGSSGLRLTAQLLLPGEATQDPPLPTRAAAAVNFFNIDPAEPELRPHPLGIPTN
Sequence of 5-hydroxytryptamine receptor 1B (Rattus norvegicus) (P28564 whole entry): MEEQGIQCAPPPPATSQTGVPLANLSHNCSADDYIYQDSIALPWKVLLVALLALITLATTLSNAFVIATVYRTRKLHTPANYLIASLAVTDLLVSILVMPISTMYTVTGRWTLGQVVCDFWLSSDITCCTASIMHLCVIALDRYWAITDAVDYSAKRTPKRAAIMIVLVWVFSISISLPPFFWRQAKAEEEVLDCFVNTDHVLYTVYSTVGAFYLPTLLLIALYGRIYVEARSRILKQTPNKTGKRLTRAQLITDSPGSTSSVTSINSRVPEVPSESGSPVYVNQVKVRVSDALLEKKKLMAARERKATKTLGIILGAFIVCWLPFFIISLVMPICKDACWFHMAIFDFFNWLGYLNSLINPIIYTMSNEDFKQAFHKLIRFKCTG
Sequence of Delta-type opioid receptor (P41143 whole entry): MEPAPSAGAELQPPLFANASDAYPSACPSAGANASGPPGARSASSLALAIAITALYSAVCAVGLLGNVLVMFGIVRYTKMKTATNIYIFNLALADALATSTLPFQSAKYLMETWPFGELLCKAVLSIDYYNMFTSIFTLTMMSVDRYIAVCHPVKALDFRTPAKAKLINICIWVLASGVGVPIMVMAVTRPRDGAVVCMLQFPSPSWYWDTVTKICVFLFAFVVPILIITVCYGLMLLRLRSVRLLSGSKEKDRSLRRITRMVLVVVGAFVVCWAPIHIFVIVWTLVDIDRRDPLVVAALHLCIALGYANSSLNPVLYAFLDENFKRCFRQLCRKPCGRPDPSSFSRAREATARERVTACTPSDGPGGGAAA
Sequence of 5-hydroxytryptamine receptor 5A (P47898 whole entry): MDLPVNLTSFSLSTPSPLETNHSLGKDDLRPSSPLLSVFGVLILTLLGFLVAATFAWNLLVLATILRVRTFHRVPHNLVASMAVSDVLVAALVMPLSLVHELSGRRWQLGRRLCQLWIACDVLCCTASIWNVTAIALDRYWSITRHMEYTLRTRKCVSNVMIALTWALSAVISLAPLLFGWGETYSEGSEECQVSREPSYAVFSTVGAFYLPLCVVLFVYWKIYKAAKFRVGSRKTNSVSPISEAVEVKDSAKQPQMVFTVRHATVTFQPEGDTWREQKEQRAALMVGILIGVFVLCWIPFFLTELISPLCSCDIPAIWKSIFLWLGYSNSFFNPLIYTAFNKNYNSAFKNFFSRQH
Sequence of Adenosine receptor A2a (P29274 whole entry): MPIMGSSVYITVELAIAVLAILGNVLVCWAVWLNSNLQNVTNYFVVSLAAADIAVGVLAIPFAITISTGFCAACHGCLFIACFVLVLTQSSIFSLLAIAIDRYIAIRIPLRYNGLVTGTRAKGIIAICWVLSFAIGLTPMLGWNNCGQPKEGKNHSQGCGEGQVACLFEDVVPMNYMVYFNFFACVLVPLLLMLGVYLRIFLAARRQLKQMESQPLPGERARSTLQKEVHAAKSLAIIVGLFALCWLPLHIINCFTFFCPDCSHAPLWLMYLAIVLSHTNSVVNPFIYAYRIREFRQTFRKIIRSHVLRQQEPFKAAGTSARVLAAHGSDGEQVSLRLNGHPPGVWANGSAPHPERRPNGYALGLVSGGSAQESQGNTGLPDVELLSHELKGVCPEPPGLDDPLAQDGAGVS
Sequence of Beta-1 adrenergic receptor (P08588 whole entry, looked up): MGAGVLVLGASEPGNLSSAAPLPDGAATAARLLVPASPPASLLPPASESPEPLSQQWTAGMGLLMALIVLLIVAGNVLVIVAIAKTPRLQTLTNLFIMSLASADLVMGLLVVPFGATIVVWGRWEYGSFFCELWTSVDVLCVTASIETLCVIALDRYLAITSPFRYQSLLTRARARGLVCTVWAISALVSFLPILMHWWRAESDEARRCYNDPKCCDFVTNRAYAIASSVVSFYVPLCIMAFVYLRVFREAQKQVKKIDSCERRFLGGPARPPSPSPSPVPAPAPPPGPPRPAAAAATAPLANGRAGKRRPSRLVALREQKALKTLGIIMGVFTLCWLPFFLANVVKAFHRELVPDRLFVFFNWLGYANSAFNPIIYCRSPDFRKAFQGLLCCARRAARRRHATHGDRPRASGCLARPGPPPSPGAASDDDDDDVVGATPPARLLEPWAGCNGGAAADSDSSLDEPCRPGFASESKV
Sequence of B2 bradykinin receptor (Homo sapiens) (P30411 whole entry): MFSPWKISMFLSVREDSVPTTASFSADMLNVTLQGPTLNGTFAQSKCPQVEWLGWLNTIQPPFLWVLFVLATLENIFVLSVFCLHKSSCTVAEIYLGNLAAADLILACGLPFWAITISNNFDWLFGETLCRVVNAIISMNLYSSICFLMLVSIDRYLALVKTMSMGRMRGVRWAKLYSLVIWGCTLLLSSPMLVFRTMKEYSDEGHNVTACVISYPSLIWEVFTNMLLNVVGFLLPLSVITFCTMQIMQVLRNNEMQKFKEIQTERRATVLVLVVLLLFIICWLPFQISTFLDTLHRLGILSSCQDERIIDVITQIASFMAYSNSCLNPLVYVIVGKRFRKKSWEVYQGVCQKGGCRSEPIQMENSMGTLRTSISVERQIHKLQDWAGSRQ
Sequence of Neuropeptide Y receptor type 1 (Homo sapiens) (P25929 whole entry): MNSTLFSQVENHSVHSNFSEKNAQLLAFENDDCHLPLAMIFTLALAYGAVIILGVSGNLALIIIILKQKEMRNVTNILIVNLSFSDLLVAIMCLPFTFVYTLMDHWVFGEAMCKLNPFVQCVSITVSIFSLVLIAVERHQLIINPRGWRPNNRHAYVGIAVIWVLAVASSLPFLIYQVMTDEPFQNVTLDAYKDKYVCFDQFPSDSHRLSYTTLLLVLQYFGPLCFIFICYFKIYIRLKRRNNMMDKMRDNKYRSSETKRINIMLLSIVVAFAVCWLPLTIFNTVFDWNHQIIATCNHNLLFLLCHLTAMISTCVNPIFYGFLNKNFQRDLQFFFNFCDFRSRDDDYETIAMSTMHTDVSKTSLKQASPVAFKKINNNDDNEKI

## CC(C)(C)NS(=O)(=O)c1ccc(-c2sc(C(=O)N[C@H]3C[C@H](C(=O)O)C3)nc2CC2CCCCC2)c2ccccc12
[1]
  inhibition: < 10%
D(2) dopamine receptor [2]
  inhibition: 19%
Melanocortin receptor 4
  inhibition: 25%
[3]
  inhibition: < 10%
[4]
  inhibition: 16%
[5]
  inhibition: < 10%
[6]
  inhibition: 10%
[7]
  inhibition: < 10%
Adenosine receptor A2a
  inhibition: 21%
[8]
  inhibition: < 10%
Rattus norvegicus [9]
  inhibition: < 10%
D(2) dopamine receptor [10]
  inhibition: < 10%
[11]
  inhibition: < 10%
[12]
  inhibition: < 10%
[13]
  inhibition: < 10%
[14]
  inhibition: < 10%
Rattus norvegicus [15]
  inhibition: < 10%
Adenosine receptor A3
  IC50: 0.17 nM
[16]
  IC50: 6 nM
[17]
  inhibition: -1%
PXR (NR1I2)
  Emax at 16 h, 10 µM: 195%
[18]
  Vd: 1.1 L/kg
[19]
  Cmax: 130 ng/mL
[20]
  AUC(0-inf): 328 ng·h/mL
[21]
  inhibition: -10%
[22]
  inhibition: 2%
